Among the data in US20240092784A1, “CONDENSED HETEROCYCLIC COMPOUND” (NISSAN CHEMICAL CORPORATION, priority 2020, published 2024) are IC50 values, retold here.

This assay has as its target human SPR (Homo sapiens (Human), UniProt P35270). Nature of the assay: Evaluation Example 2: Measurement of human SPR inhibitory activity (seven concentrations, sepiapterin absorbance at 420 nm). Format: biochemical. The method in brief: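 His-tagged full-length human SPR (1-261) was expressed in E. coli and the tag removed. Enzyme at 150 ng/mL in 100 mM Tris-HCl pH 7.5/0.01% BSA was mixed with compound (0.14–100 nM, seven points), 120 μM sepiapterin and 160 μM NADPH, both as added-solution concentrations. After 240 min at room temperature, remaining sepiapterin was read at 420 nm to give percent inhibition.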

[1] abbreviates: Evaluation Example 2, seven concentrations 0.14 nM to 100 nM, 240 minutes at room temperature, read-out: IC50.

Where a name gives a salt, the structure may show the parent alone. Read-outs that look alike come from different tables or passages of the source.

human SPR, sequence (P35270 whole entry): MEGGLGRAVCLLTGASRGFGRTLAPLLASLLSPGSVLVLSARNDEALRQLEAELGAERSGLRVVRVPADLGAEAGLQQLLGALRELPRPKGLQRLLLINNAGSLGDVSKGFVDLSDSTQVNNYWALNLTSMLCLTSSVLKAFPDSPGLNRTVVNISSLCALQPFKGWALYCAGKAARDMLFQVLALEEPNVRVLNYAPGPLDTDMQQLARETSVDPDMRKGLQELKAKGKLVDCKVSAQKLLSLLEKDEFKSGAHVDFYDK

For the molecule `Cc1nnc(/C=C/c2cnn3c(O)c(C(=O)NC4CC4)c(=O)n(CC(C)C)c23)o1` [Synthesis Example 269, (E)-N-Cyclopropyl-7-hydroxy-4-isobutyl-3-(2-(5-methyl-1,3,4-oxadiazol-2-yl)vinyl)-5-oxo-4,5-dihydropyrazolo[1,5-a]pyrimidine-6-carboxamide], under setting [1], the IC50 is 1.17 nM.

Take `COC(C)(C)Cn1c(=O)c(C(=O)NC2CC2)c(O)n2nc(Nc3cnccn3)cc12` [Synthesis Example 321, N-Cyclopropyl-7-hydroxy-4-(2-methoxy-2-methylpropyl)-5-oxo-2-(pyrazin-2-ylamino)-4,5-dihydropyrazolo[1,5-a]pyrimidine-6-carboxamide]: under setting [1], the IC50 came to 0.72 nM.

In the case of `CC(C)(C)Cn1c(=O)c(C(=O)NC2CC2)c(O)n2nc(-c3c[nH]nc3C(N)=O)cc12` [Synthesis Example 312, 2-(3-Carbamoyl-1H-pyrazol-4-yl)-N-cyclopropyl-7-hydroxy-4-neopentyl-5-oxo-4,5-dihydropyrazolo[1,5-a]pyrimidine-6-carboxamide], the IC50 under setting [1] turned out to be 1.3 nM.

For `O=C(NC1CC1)c1c(O)n2ncc(/C=C/C(=O)N3C[C@H]4C[C@@H]3CO4)c2n(CC2(F)CC2)c1=O` [Synthesis Example 377], under setting [1], the IC50 is 0.78 nM.

In the case of `CC(C)(C)Cn1c(=O)c(C(=O)NC2CC2)c(O)n2nc(Nc3cnc(F)cn3)cc12` [Synthesis Example 322, N-Cyclopropyl-2-((5-fluoropyrazin-2-yl)amino)-7-hydroxy-4-neopentyl-5-oxo-4,5-dihydropyrazolo[1,5-a]pyrimidine-6-carboxamide], under setting [1], the IC50 was determined as 0.98 nM.

For the molecule `CC(C)Cn1c(=O)c(C(=O)NC2CC2)c(O)n2ncc(/C=C/C(=O)N3CCC(F)(F)CC3C)c12` (racemic) [compound 546, (E)-N-Cyclopropyl-3-(3-(4,4-difluoro-2-methylpiperidin-1-yl)-3-oxoprop-1-en-1-yl)-7-hydroxy-4-isobutyl-5-oxo-4,5-dihydropyrazolo[1,5-a]pyrimidine-6-carboxamide (racemate)], the IC50 under setting [1] came to 0.77 nM.

Consider `COC(C)(C)Cn1c(=O)c(C(=O)NC2CC2)c(O)n2ncc(/C=C/C(=O)N3CCOCC3)c12` [Synthesis Example 365, (E)-N-Cyclopropyl-7-hydroxy-4-(2-methoxy-2-methylpropyl)-3-(3-morpholino-3-oxoprop-1-en-1-yl)-5-oxo-4,5-dihydropyrazolo[1,5-a]pyrimidine-6-carboxamide], for which, under setting [1], the IC50 came out at 0.65 nM.

With `CC(C)(C)Cn1c(=O)c(C(=O)NC2CC2)c(O)n2nc(-c3n[nH]cc3C(F)(F)F)cc12` [Synthesis Example 298, N-Cyclopropyl-7-hydroxy-4-neopentyl-5-oxo-2-(4-(trifluoromethyl)-1H-pyrazol-3-yl)-4,5-dihydropyrazolo[1,5-a]pyrimidine-6-carboxamide], the IC50 under setting [1] turned out to be 3.11 nM.

`CC(C)(C)Cn1c(=O)c(C(=O)NC2CC2)c(O)n2nc(Nc3cc(C#N)ncn3)cc12` [Synthesis Example 329, 2-((6-Cyanopyrimidin-4-yl)amino)-N-cyclopropyl-7-hydroxy-4-neopentyl-5-oxo-4,5-dihydropyrazolo[1,5-a]pyrimidine-6-carboxamide]: under setting [1], the IC50 worked out at 1.69 nM.

`CN(C)/C=N/c1cc2n(CC(C)(C)C)c(=O)c(C(=O)NC3CC3)c(O)n2n1` [Synthesis Example 362, (E)-N-Cyclopropyl-2-(((dimethylamino)methylene)amino)-7-hydroxy-4-neopentyl-5-oxo-4,5-dihydropyrazolo[1,5-a]pyrimidine-6-carboxamide hydrochloride]: under setting [1], the IC50 was 1.48 nM.

With `CC(C)Cn1c(=O)c(C(=O)NC2CC2)c(O)n2ncc(/C=C/C(=O)N3CC[C@H](C#N)C3)c12` [compound 482, (S,E)-3-(3-(3-Cyanopyrrolidin-1-yl)-3-oxoprop-1-en-1-yl)-N-cyclopropyl-7-hydroxy-4-isobutyl-5-oxo-4,5-dihydropyrazolo[1,5-a]pyrimidine-6-carboxamide], the IC50 under setting [1] is 0.71 nM.

For the molecule `Cc1nn2c(O)c(C(=O)NC3CC3)c(=O)n(CC(C)C)c2c1/C=C/C(=O)N1CCC[C@@H]1c1ccccc1` [Synthesis Example 673, (R,E)-N-Cyclopropyl-7-hydroxy-4-isobutyl-2-methyl-5-oxo-3-(3-oxo-3-(2-phenylpyrrolidin-1-yl)prop-1-en-1-yl)-4,5-dihydropyrazolo[1,5-a]pyrimidine-6-carboxamide], the IC50 under setting [1] came out at 1.35 nM.

Turning to `Cc1nn2c(O)c(C(=O)NC3CC3)c(=O)n(CC(C)C)c2c1/C=C/C(=O)N1C[C@@H](F)[C@H](F)C1` (racemic) [Synthesis Example 649, N-Cyclopropyl-3-((E)-3-(trans-3,4-difluoropyrrolidin-1-yl)-3-oxoprop-1-en-1-yl)-7-hydroxy-4-isobutyl-2-methyl-5-oxo-4,5-dihydropyrazolo[1,5-a]pyrimidine-6-carboxamide], the IC50 under setting [1] amounted to 0.73 nM.

In the case of `CC(C)Cn1c(=O)c(C(=O)NC2CC2)c(O)n2ncc(/C=C/C3(C)CCOCC3)c12` [Synthesis Example 242, (E)-N-Cyclopropyl-7-hydroxy-4-isobutyl-3-(2-(4-methyltetrahydro-2H-pyran-4-yl)vinyl)-5-oxo-4,5-dihydropyrazolo[1,5-a]pyrimidine-6-carboxamide], under setting [1], the IC50 amounted to 1.39 nM.

As to `O=C(NC1CC1)c1c(O)n2ncc(/C=C/C(=O)N3C[C@@H]4C[C@H]3CO4)c2n(CC2(F)CC2)c1=O` [Synthesis Example 375], under setting [1], the IC50 is 0.65 nM.

For `CC(C)Cn1c(=O)c(C(=O)NC2CC2)c(O)n2ncc(/C=C/C(=O)N3CCC(C(C)(C)O)CC3)c12` [compound 474, (E)-N-Cyclopropyl-7-hydroxy-3-(3-(4-(2-hydroxypropan-2-yl)piperidin-1-yl)-3-oxoprop-1-en-1-yl)-4-isobutyl-5-oxo-4,5-dihydropyrazolo[1,5-a]pyrimidine-6-carboxamide], the IC50 under setting [1] was determined as 0.88 nM.

`CC(C)Cn1c(=O)c(C(=O)NC2CC2)c(O)n2ncc(/C=C/C(=O)N3CCN(C(C)C)CC3)c12` [compound 462, (E)-N-Cyclopropyl-7-hydroxy-4-isobutyl-3-(3-(4-isopropylpiperazin-1-yl)-3-oxoprop-1-en-1-yl)-5-oxo-4,5-dihydropyrazolo[1,5-a]pyrimidine-6-carboxamide]: the IC50 under setting [1] turned out to be 0.96 nM.

As for `COC(C)(C)Cn1c(=O)c(C(=O)NC2CC2)c(O)n2nc(Br)cc12` [Synthesis Example 270, 2-Bromo-N-cyclopropyl-7-hydroxy-4-(2-methoxy-2-methylpropyl)-5-oxo-4,5-dihydropyrazolo[1,5-a]pyrimidine-6-carboxamide], the IC50 under setting [1] turned out to be 1.16 nM.

With `CC(C)Cn1c(=O)c(C(=O)NC2CC2)c(O)n2ncc(/C=C/c3ccc(C(F)(F)F)nc3)c12` [Synthesis Example 248, (E)-N-Cyclopropyl-7-hydroxy-4-isobutyl-5-oxo-3-(2-(6-(trifluoromethyl)pyridine-3-yl)vinyl)-4,5-dihydropyrazolo[1,5-a]pyrimidine-6-carboxamide], the IC50 under setting [1] was determined as 1.89 nM.

For the molecule `COC[C@H]1COCCN1C(=O)/C=C/c1c(C)nn2c(O)c(C(=O)NC3CC3)c(=O)n(CC(C)(C)C)c12` [Synthesis Example 694, (S,E)-N-Cyclopropyl-7-hydroxy-3-(3-(3-(methoxymethyl)morpholino)-3-oxoprop-1-en-1-yl)-2-methyl-4-neopentyl-5-oxo-4,5-dihydropyrazolo[1,5-a]pyrimidine-6-carboxamide], the IC50 (sepiapterin absorbance, Table 41, read-out: concentration at 50% inhibition of human SPR (IC50)) stood at 0.85 nM.
